The record followed here is ChEMBL document CHEMBL1201862, “PubChem BioAssay data set” (2004).

Among the test systems are COLO 205; OVCAR-4; KM12; RPMI-8226; K562; NCI-H522; SK-MEL-28; HCT-15; HOP-62; M14; A498; NCI-H23; SK-OV-3; A549; IGROV-1; TK-10; HOP-92.
Holding throughout (assay): DTP human tumour cell line panel, 48 h

As a reminder, the GI50 is the concentration that inhibits growth by half.

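Five concentrations, 48 hours, 96-well plates. GI50 = concentration required for 50% inhibition of growth.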 Activity calls are given as the source filed them. Cut-off read from the data, not from the text of the source: active = GI50 up to about 1.1 µM and inactive = higher.

Turning to `O=C1CCCCC1CN1CCCC1` (stereo not given), the GI50 in the assay with COLO 205 was > 100 µM (inactive); in the assay with OVCAR-4, > 100 µM (inactive); in the assay on KM12 it was > 100 µM (inactive); with RPMI-8226 it was 84.3 µM (inactive); in the assay on K562 it was > 100 µM (inactive); with NCI-H522, 0.178 µM (active). Besides, the GI50 with SK-MEL-28 was > 100 µM (inactive); in the assay with HCT-15 it was more than 100 µM; with HOP-62 it was > 100 µM (inactive); with M14, > 100 µM (inactive); with A498, > 100 µM (inactive); with NCI-H23, > 100 µM (inactive). Also, the GI50 in the assay with SK-OV-3, in the assay with A549, in the assay with IGROV-1 and in the assay with TK-10 was > 100 µM (inactive) in each case.

`O=C(NCc1ccncc1)C1COc2cc(-c3cc(=O)c4ccccc4o3)ccc2O1` (stereo not given): the GI50 with OVCAR-4, in the assay with KM12, with HOP-92, in the assay on K562, in the assay on NCI-H522 and in the assay on SK-MEL-28 was > 100 µM (inactive) throughout. Further, the GI50 in the assay with HCT-15 was more than 100 µM; with HOP-62, > 100 µM (inactive); in the assay on M14, > 100 µM (inactive); in the assay with NCI-H23 it was > 100 µM (inactive); in the assay with SK-OV-3 it was > 100 µM (inactive); in the assay on A549, > 100 µM (inactive). Also, the GI50 in the assay with IGROV-1 and in the assay with TK-10 was > 100 µM (inactive) throughout.

For `CC(=O)NN1C(=O)C(Cc2ccccc2)c2ccccc21` (stereo not given), the GI50 in the assay on COLO 205, in the assay on OVCAR-4, in the assay with KM12, with RPMI-8226, in the assay on HOP-92 and in the assay with K562 was > 100 µM (inactive) throughout. In addition, the GI50 was > 100 µM (inactive) with SK-MEL-28; more than 100 µM with HCT-15; > 100 µM (inactive) with HOP-62; > 100 µM (inactive) with M14; > 100 µM (inactive) in the assay with A498; > 100 µM (inactive) in the assay on NCI-H23. Further, the GI50 in the assay on SK-OV-3, with A549, in the assay with IGROV-1 and with TK-10 was > 100 µM (inactive) in each case.

As for `Cc1ccc(Sc2cc([N+](=O)[O-])cc(Sc3ccc(C)cc3)c2Sc2ccc(C)cc2)cc1`, the GI50 in the assay on COLO 205 was > 100 µM (inactive); with KM12, > 100 µM (inactive); in the assay on RPMI-8226, > 100 µM (inactive); in the assay with K562 it was 48.8 µM (inactive); in the assay on HCT-15, more than 100 µM; in the assay with HOP-62, > 100 µM (inactive). The GI50 in the assay on M14, in the assay on A498, in the assay with A549, with IGROV-1 and with TK-10 was > 100 µM (inactive) each time.

As to `COC(=O)C1=C(SC)SC2(C(=O)OC)C3C=C(C)C4C(N13)C42C(=O)OC` (stereo not given), the GI50 with COLO 205 is > 100 µM (inactive); with RPMI-8226, > 100 µM (inactive); in the assay with K562, > 100 µM (inactive); with NCI-H522 it was > 100 µM (inactive); in the assay with SK-MEL-28 it was > 100 µM (inactive); in the assay with HCT-15 it was more than 100 µM. The GI50 in the assay with HOP-62, in the assay on M14, in the assay on NCI-H23, in the assay with SK-OV-3, in the assay with A549 and with IGROV-1 was > 100 µM (inactive) in each case. Moreover, the GI50 in the assay on TK-10 was > 100 µM (inactive).

Take `COc1cc2c(cc1OC)C(C#N)(Cc1ccccc1)N(C(=O)c1ccccc1)C=C2` (stereo not given): the GI50 was 35.2 µM (inactive) in the assay on COLO 205; 60.7 µM (inactive) in the assay with KM12; 35.5 µM (inactive) in the assay with RPMI-8226; 58.2 µM (inactive) in the assay with HOP-92; 44.3 µM (inactive) in the assay on K562; 33.9 µM (inactive) with NCI-H522. For the same compound, the GI50 with SK-MEL-28 was > 100 µM (inactive); in the assay with HCT-15, 38.8 µM; in the assay with HOP-62 it was 51.5 µM (inactive); in the assay on M14, > 100 µM (inactive); with NCI-H23, 75.7 µM (inactive); with SK-OV-3, 75.3 µM (inactive). For the same compound, the GI50 in the assay on IGROV-1 and in the assay with TK-10 was > 100 µM (inactive) throughout.

For the compound `O=C(Cc1nc2ccccc2o1)C(=O)Nc1ccc(Cl)cc1Cl`, the GI50 with COLO 205, with OVCAR-4, in the assay on RPMI-8226, in the assay on HOP-92, in the assay with K562 and with SK-MEL-28 was > 100 µM (inactive) each time. Further, the concentration for 50% growth inhibition (GI50) in the assay on HCT-15 is more than 100 µM; with HOP-62 it was > 100 µM (inactive); with M14 it was > 100 µM (inactive); in the assay with A498, > 100 µM (inactive); in the assay with NCI-H23 it was > 100 µM (inactive); in the assay on SK-OV-3, > 100 µM (inactive). Moreover, the GI50 with A549 and in the assay with IGROV-1 was > 100 µM (inactive) throughout.

As to `ClC1=C(Cl)C(Cl)(Cl)c2c3c(c4c(c21)C(Cl)(Cl)C(Cl)=C4Cl)C(Cl)(Cl)C(Cl)=C3Cl`, the GI50 with COLO 205 is > 100 µM (inactive); in the assay on KM12, > 100 µM (inactive); in the assay on RPMI-8226, > 100 µM (inactive); with K562, > 100 µM (inactive); in the assay on NCI-H522, 33.1 µM (inactive); with SK-MEL-28, > 100 µM (inactive). Moreover, the GI50 was more than 100 µM with HCT-15; > 100 µM (inactive) with HOP-62; > 100 µM (inactive) with M14; > 100 µM (inactive) with NCI-H23; > 100 µM (inactive) in the assay with SK-OV-3; > 100 µM (inactive) in the assay on A549. For the same compound, the GI50 in the assay with IGROV-1 was > 100 µM (inactive).

Take `O=C(c1ccccc1)[C@@H]1C[C@H](Sc2ccccc2)c2cc(Cl)ccc2N1`: the GI50 with COLO 205 was 45.5 µM (inactive); with OVCAR-4, 37.5 µM (inactive); in the assay with KM12, 57.5 µM (inactive); in the assay on RPMI-8226, 23.7 µM (inactive); in the assay on K562, 18.9 µM (inactive); in the assay with NCI-H522 it was 22.1 µM (inactive). For the same compound, the GI50 is 17.9 µM (inactive) with SK-MEL-28; 25.4 µM in the assay on HCT-15; 51.6 µM (inactive) in the assay on HOP-62; 28.2 µM (inactive) in the assay with M14; 11.5 µM (inactive) in the assay with A498; 20.2 µM (inactive) with NCI-H23. Besides, the GI50 is 28.5 µM (inactive) in the assay on A549, 32.3 µM (inactive) in the assay on IGROV-1 and 25.2 µM (inactive) in the assay with TK-10.

As to `CCOC(=O)Nc1ccc(S(=O)(=O)I)cc1.CCOC(=O)Nc1ccc(S(=O)(=O)I)cc1.CNC(=O)N=O.NC(=O)OCCCl`, the GI50 was > 100 µM (inactive) with COLO 205; > 100 µM (inactive) with KM12; 40.5 µM (inactive) with HOP-92; 40 µM (inactive) in the assay with K562; 67 µM (inactive) in the assay on SK-MEL-28; 70.8 µM with HCT-15. Further, the GI50 in the assay on HOP-62 is 46.7 µM (inactive); with M14, > 100 µM (inactive); with A498, > 100 µM (inactive); in the assay with NCI-H23, > 100 µM (inactive); in the assay on SK-OV-3 it was > 100 µM (inactive); in the assay on A549, > 100 µM (inactive). The GI50 in the assay with IGROV-1 and in the assay on TK-10 was > 100 µM (inactive) each time.
